Reference: PubChem BioAssay AID248 (DTP/NCI, 2004)
Where “and” joins values, the source holds several entries; their conditions need not be identical. Equal values may be shown once. Toxic doses and inconclusive results are not listed.

System: L1210 leukemia ip in BDF1 mice, survival T/C
Assay: NCI In Vivo Anticancer Drug Screen. Data for tumor model L1210 Leukemia (intraperitoneal) in B6D2F1 (BDF1) mice
Conditions: higher = longer survival
Procedure, shortened: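 Read-out is survival time, reported as the treated-group measurement over the vehicle-control measurement.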

[1] = endpoint: mean survival time, dose: 75.0 mg/kg/injection, schedule: Q01DX001 (ip), vehicle: other
[2] = endpoint: mean survival time, dose: 150.0 mg/kg/injection, schedule: Q01DX001 (ip), vehicle: other
[3] = endpoint: mean survival time, dose: 300.0 mg/kg/injection, schedule: Q01DX001 (ip), vehicle: other
[4] = endpoint: mean survival time, dose: 100.0 mg/kg/injection, schedule: Q01DX009 (ip), vehicle: saline with Tween-80
[5] = endpoint: mean survival time, dose: 100.0 mg/kg/injection, schedule: Q04DX003 (ip), vehicle: saline with Tween-80
[6] = endpoint: mean survival time, dose: 200.0 mg/kg/injection, schedule: Q01DX009 (ip), vehicle: saline with Tween-80
[7] = endpoint: mean survival time, dose: 200.0 mg/kg/injection, schedule: Q04DX003 (ip), vehicle: saline with Tween-80
[8] = endpoint: mean survival time, dose: 400.0 mg/kg/injection, schedule: Q01DX009 (ip), vehicle: saline with Tween-80
[9] = endpoint: mean survival time, dose: 400.0 mg/kg/injection, schedule: Q04DX003 (ip), vehicle: saline with Tween-80
[10] = endpoint: mean survival time, dose: 100.0 mg/kg/injection, schedule: Q04DX003 (ip), vehicle: saline
[11] = endpoint: mean survival time, dose: 200.0 mg/kg/injection, schedule: Q04DX003 (ip), vehicle: saline
[12] = endpoint: mean survival time, dose: 100.0 mg/kg/injection, schedule: Q01DX001 (ip), vehicle: saline
[13] = endpoint: mean survival time, dose: 200.0 mg/kg/injection, schedule: Q01DX001 (ip), vehicle: saline
[14] = endpoint: mean survival time, dose: 400.0 mg/kg/injection, schedule: Q01DX001 (ip), vehicle: saline
[15] = endpoint: mean survival time, dose: 400.0 mg/kg/injection, schedule: Q04DX003 (ip), vehicle: saline

N=c1c2ccccc2nnn1-c1ccccc1[N+](=O)[O-]
T/C [1]: 92 % of control
T/C [2]: 99 % of control
T/C [3]: 92 % of control

CSc1nc(O)cc(=O)n1C
T/C (endpoint: mean survival time, dose: 100.0 mg/kg/injection, schedule: Q01DX Z (ip), vehicle: methylcellulose (MC)): 95 % of control
T/C (endpoint: mean survival time, dose: 200.0 mg/kg/injection, schedule: Q01DX Z (ip), vehicle: methylcellulose (MC)): 101 % of control

COc1ccc2c3c1OC1C(=O)CCC4C(C2)N(C)CCC314 (centres undefined)
T/C (endpoint: mean survival time, dose: 75.0 mg/kg/injection, schedule: Q01DX001 (ip), vehicle: saline): 94 % of control

CC1(C)CCCC/C1=N\NC(N)=O
T/C (endpoint: mean survival time, dose: 37.5 mg/kg/injection, schedule: Q01DX009 (ip), vehicle: saline with Tween-80): 98 % of control
T/C [1]: 102 % of control
T/C (endpoint: mean survival time, dose: 75.0 mg/kg/injection, schedule: Q01DX009 (ip), vehicle: saline with Tween-80): 96 % of control
T/C (endpoint: mean survival time, dose: 75.0 mg/kg/injection, schedule: Q04DX003 (ip), vehicle: saline sonified): 98 % of control
T/C [2]: 102 % of control
T/C (endpoint: mean survival time, dose: 150.0 mg/kg/injection, schedule: Q01DX009 (ip), vehicle: saline with Tween-80): 94 % of control
T/C (endpoint: mean survival time, dose: 150.0 mg/kg/injection, schedule: Q04DX003 (ip), vehicle: saline sonified): 87 % of control
T/C [3]: 102 % of control

CC(C)(C)N1C(C(=O)c2ccccc2)C1C(=O)c1ccccc1 (centres undefined)
T/C (endpoint: mean survival time, dose: 100.0 mg/kg/injection, schedule: Q01DX001 (ip), vehicle: Klucel (hydroxypropylcellulose) (HPC)): 97 % of control
T/C (endpoint: mean survival time, dose: 200.0 mg/kg/injection, schedule: Q01DX001 (ip), vehicle: Klucel (hydroxypropylcellulose) (HPC)): 95 % of control
T/C (endpoint: mean survival time, dose: 400.0 mg/kg/injection, schedule: Q01DX001 (ip), vehicle: Klucel (hydroxypropylcellulose) (HPC)): 89 % of control

CCOc1nc(S(=O)(=O)CC)ncc1C
T/C [4]: 109 % of control
T/C [5]: 105 % of control
T/C [6]: 104 % of control
T/C [7]: 100 % of control
T/C [8]: 87 % of control
T/C [9]: 103 % of control

O=C1C(O)=C(Cl)C(=O)C(OC2=C(Cl)C(=O)C(OC3=C(Cl)C(=O)C(OC4=C(Cl)C(=O)C(Cl)=C(Cl)C4=O)=C(Cl)C3=O)=C(Cl)C2=O)=C1Cl
T/C [10]: 97 % of control
T/C [11]: 105 % of control

NC(=O)N1CC(c2ccccc2)CCc2ccccc21 (centres undefined)
T/C [12]: 98 % of control
T/C [13]: 108 % of control
T/C [14]: 102 % of control

COc1cc2c3c(c4cc(OC)c(OC)cc4c2cc1OC)CN1CCC[C@H]1C3
T/C (endpoint: mean survival time, dose: 4.0 mg/kg/injection, schedule: Q01DX015 (ip), vehicle: water): 100 % of control
T/C (endpoint: mean survival time, dose: 6.0 mg/kg/injection, schedule: Q01DX015 (ip), vehicle: water): 100 % of control
T/C (endpoint: mean survival time, dose: 6.25 mg/kg/injection, schedule: Q01DX015 (ip), vehicle: water): 112 % of control
T/C (endpoint: mean survival time, dose: 8.0 mg/kg/injection, schedule: Q01DX Z (ip), vehicle: water): 107 % of control
T/C (endpoint: mean survival time, dose: 9.0 mg/kg/injection, schedule: Q01DX015 (ip), vehicle: water): 112 % of control
T/C (endpoint: mean survival time, dose: 12.0 mg/kg/injection, schedule: Q01DX Z (ip), vehicle: water): 100 % of control
T/C (endpoint: mean survival time, dose: 14.0 mg/kg/injection, schedule: Q01DX015 (ip), vehicle: water): 117 % of control
T/C (endpoint: mean survival time, dose: 15.0 mg/kg/injection, schedule: Q02DX Z (ip), vehicle: water): 108 % of control
T/C (endpoint: mean survival time, dose: 25.0 mg/kg/injection, schedule: Q01DX015 (ip), vehicle: water): 98 % of control
T/C (endpoint: mean survival time, dose: 30.0 mg/kg/injection, schedule: Q02DX Z (ip), vehicle: water): 150 % of control
T/C (endpoint: mean survival time, dose: 250.0 mg/kg/injection, schedule: Q01DX Z (ip), vehicle: saline): 154 % of control

NC(=O)c1cc(Cl)c(OCc2ccccc2)c(Cl)c1
T/C (endpoint: mean survival time, dose: 75.0 mg/kg/injection, schedule: Q01DX001 (ip), vehicle: saline with Tween-80): 98 % of control
T/C (endpoint: mean survival time, dose: 150.0 mg/kg/injection, schedule: Q01DX001 (ip), vehicle: saline with Tween-80): 103 % of control
T/C (endpoint: mean survival time, dose: 300.0 mg/kg/injection, schedule: Q01DX001 (ip), vehicle: saline with Tween-80): 98 % of control

NC(=O)n1cnc(N)n1
T/C (endpoint: mean survival time, dose: 50.0 mg/kg/injection, schedule: Q01DX001 (ip), vehicle: saline): 98 % of control
T/C [12]: 98 % of control
T/C [13]: 104 % of control
T/C [14]: 107 % of control

O=[N+]([O-])c1ccc(OP(=O)(Oc2ccc([N+](=O)[O-])cc2)Oc2ccc([N+](=O)[O-])cc2)cc1
T/C (endpoint: mean survival time, dose: 100.0 mg/kg/injection, schedule: Q04DX003 (ip), vehicle: gum acacia): 97 % of control and 107 % of control
T/C (endpoint: mean survival time, dose: 200.0 mg/kg/injection, schedule: Q04DX003 (ip), vehicle: gum acacia): 92 % of control and 103 % of control
T/C (endpoint: mean survival time, dose: 400.0 mg/kg/injection, schedule: Q04DX003 (ip), vehicle: gum acacia): 94 % of control and 95 % of control

O=c1cccc2n1Cc1cc3ccccc3nc1-2
T/C (endpoint: mean survival time, dose: 37.5 mg/kg/injection, schedule: Q04DX003 (ip), vehicle: saline): 95 % of control
T/C (endpoint: mean survival time, dose: 75.0 mg/kg/injection, schedule: Q04DX003 (ip), vehicle: saline): 89 % of control

Cc1cc2oc(C)[n+](Cc3ccccc3)c2cc1C
T/C [4]: 105 % of control and 86 % of control
T/C [5]: 97 % of control
T/C [6]: 96 % of control and 110 % of control
T/C [7]: 95 % of control
T/C [9]: 95 % of control

O=c1n[n+]([O-])ccn1C1OC(CO)C(O)C1O (centres undefined)
T/C (endpoint: mean survival time, dose: 100.0 mg/kg/injection, schedule: Q01DX005 (ip), vehicle: saline): 111 % of control
T/C (endpoint: mean survival time, dose: 200.0 mg/kg/injection, schedule: Q01DX005 (ip), vehicle: saline): 111 % of control
T/C (endpoint: mean survival time, dose: 200.0 mg/kg/injection, schedule: Q01DX009 (ip), vehicle: saline): 121 % of control
T/C (endpoint: median survival time, dose: 200.0 mg/kg/injection, schedule: Q01DX009 (ip), vehicle: saline): 176 % of control
T/C (endpoint: median survival time, dose: 250.0 mg/kg/injection, schedule: Q01DX009 (ip), vehicle: saline): 280 % of control
T/C (endpoint: median survival time, dose: 300.0 mg/kg/injection, schedule: Q01DX009 (ip), vehicle: saline): 352 % of control
T/C (endpoint: median survival time, dose: 350.0 mg/kg/injection, schedule: Q01DX009 (ip), vehicle: saline): 97 % of control
T/C (endpoint: median survival time, dose: 400.0 mg/kg/injection, schedule: Q01DX009 (ip), vehicle: saline): 97 % of control
T/C (endpoint: median survival time, dose: 450.0 mg/kg/injection, schedule: Q01DX009 (ip), vehicle: saline): 152 % of control

O=C1CCC(N2C(=O)C3C4C=CC(C4)C3C2=O)C(=O)N1 (centres undefined)
T/C [10]: 101 % of control
T/C [11]: 101 % of control
T/C [15]: 97 % of control

COc1ccc(C)cc1OC(CCC(C)C)C(C)=O (centres undefined)
T/C (endpoint: mean survival time, dose: 75.0 mg/kg/injection, schedule: Q01DX001 (ip), vehicle: carboxymethylcellulose (CMC)): 93 % of control
T/C (endpoint: mean survival time, dose: 150.0 mg/kg/injection, schedule: Q01DX001 (ip), vehicle: carboxymethylcellulose (CMC)): 96 % of control
T/C (endpoint: mean survival time, dose: 300.0 mg/kg/injection, schedule: Q01DX001 (ip), vehicle: carboxymethylcellulose (CMC)): 90 % of control

CCC1NC(=O)C(NC(=O)c2ncccc2O)C(C)OC(=O)C(c2ccccc2)NC(=O)C2CC(=O)CCN2C(=O)C(Cc2ccccc2)N(C)C(=O)C2CCCN2C1=O (centres undefined) (tested in a mixture with another compound)
T/C (endpoint: mean survival time, dose: 18.75 mg/kg/injection, schedule: Q01DX009 (ip), vehicle: Klucel (hydroxypropylcellulose) (HPC)): 91 % of control
T/C (endpoint: mean survival time, dose: 37.5 mg/kg/injection, schedule: Q01DX009 (ip), vehicle: Klucel (hydroxypropylcellulose) (HPC)): 107 % of control
T/C (endpoint: mean survival time, dose: 75.0 mg/kg/injection, schedule: Q01DX009 (ip), vehicle: Klucel (hydroxypropylcellulose) (HPC)): 98 % of control

Cc1nccc(Cl)n1
T/C [10]: 104 % of control
T/C [11]: 90 % of control
T/C [15]: 93 % of control

OC1(c2ccccc2)c2ccccc2C(O)(c2ccccc2)c2c1ccc1ccccc21 (centres undefined)
T/C [4]: 93 % of control
T/C [8]: 93 % of control

CCN(CC)CC(O)c1ccnc2c([N+](=O)[O-])cc(OC)cc12 (centres undefined)
T/C (endpoint: mean survival time, dose: 75.0 mg/kg/injection, schedule: Q01DX001 (ip), vehicle: acetone): 106 % of control
T/C (endpoint: mean survival time, dose: 150.0 mg/kg/injection, schedule: Q01DX001 (ip), vehicle: acetone): 102 % of control
T/C (endpoint: mean survival time, dose: 300.0 mg/kg/injection, schedule: Q01DX001 (ip), vehicle: acetone): 91 % of control

CC(C)(C)OC[CH2][Hg][I]
T/C (endpoint: mean survival time, dose: 12.5 mg/kg/injection, schedule: Q04DX002 (ip), vehicle: Klucel (hydroxypropylcellulose) (HPC)): 96 % of control
T/C (endpoint: mean survival time, dose: 25.0 mg/kg/injection, schedule: Q04DX002 (ip), vehicle: Klucel (hydroxypropylcellulose) (HPC)): 104 % of control
